Values of other authors, collected in EP3173421A1, “PEPTIDIC COMPOUNDS USEFUL AS ANTIBACTERIAL AGENTS” (Universitat de Barcelona, priority 2015, dated 2017).
Where a SMILES comes first, the peptide text is derived from it. Bridges are numbered along the chain shown (N, C = ends). Where no end group is shown, it is not given here. [ ]: non-standard residue; d: D form. The star is where a group is joined. ξ: configuration not given here. Thr(3ξ) = CC(O)[C@H](N)C(=O)O; Decanoyl = CCCCCCCCCC(=O)*; X1 = CC[C@H](C)CCCCC(=O)*; Nle = CCCC[C@H](N)C(=O)O; Dab = NCC[C@H](N)C(=O)O

How the values were obtained:
[1] = test system: Pseudomonas aeruginosa ATCC 9027; conditions: P. aeruginosa ATTC9027 (non-resistant); comparative examples, extracted from Rabanal et al. 2015; cited from earlier work
Escherichia coli VAL 5 = conditions: E coli VAL 5; comparative examples, extracted from Rabanal et al. 2015; cited from earlier work
Escherichia coli VAL 10 = conditions: E coli VAL10; comparative examples, extracted from Rabanal et al. 2015; cited from earlier work
Escherichia coli MAC21a = conditions: E coli MAC21 a; comparative examples, extracted from Rabanal et al. 2015; cited from earlier work
[2] = test system: Staphylococcus aureus ATTC6538; conditions: S. aureus ATTC6538; comparative examples, extracted from Rabanal et al. 2015; cited from earlier work
[3] = test system: Pseudomonas aeruginosa 38a; conditions: P. aeruginosa 38a; comparative examples, extracted from Rabanal et al. 2015; cited from earlier work
Escherichia coli NDM-1 = conditions: E coli NDM-1; comparative examples, extracted from Rabanal et al. 2015; cited from earlier work
[4] = test system: Escherichia coli ATCC 8739; conditions: E coli ATCC8739 (non-resistant); comparative examples, extracted from Rabanal et al. 2015; cited from earlier work
[5] = test system: Pseudomonas aeruginosa 36a; conditions: P. aeruginosa 36a; comparative examples, extracted from Rabanal et al. 2015; cited from earlier work
[6] = after 6h; kidneys versus serum; cited from earlier work

Row | Molecule | MIC [1] | MIC (Escherichia coli VAL 5) | MIC (Escherichia coli VAL 10) | MIC (Escherichia coli MAC21a) | MIC [2] | MIC [3] | MIC (Escherichia coli NDM-1) | MIC [4] | MIC [5] | concentration in kidneys as multiple of the serum concentration [6]
1 | Decanoyl-[Dab]T[Dab]C[Dab][dF][Nle][Dab][Dab][dC] (cysteine pairing not given here) [Comparative Example 8c] | 1 µg/mL | 0.5 µg/mL | 0.5 µg/mL | 0.5 µg/mL | 4 µg/mL | 0.5 µg/mL | 0.5 µg/mL | 2 µg/mL | – | –
2 | polymyxin E (colistin) [polymyxin E (colistin) (8e)] | 1 µg/mL | 0.25 µg/mL | 0.5 µg/mL | 0.25 µg/mL | – | 1 µg/mL | 0.5 µg/mL | – | 1 µg/mL | –
3 | CC[C@H](C)CCCCC(=O)N[C@@H](CCN)C(=O)N[C@H](C(=O)N[C@@H](CCN)C(=O)N[C@H]1CCNC(=O)[C@H](C(C)O)NC(=O)[C@H](CCN)NC(=O)[C@H](CCN)NC(=O)[C@H](CC(C)C)NC(=O)[C@@H](Cc2ccccc2)NC(=O)[C@H](CCN)NC1=O)C(C)O (stereo partly shown) [polymyxin B (8d), Polymyxin B] (X1-[Dab][Thr(3ξ)][Dab][Dab][Dab][dF]L[Dab][Dab][Thr(3ξ)]; lactam 4-C) | – | – | – | – | – | – | – | – | – | more than 30
